Values joined by “and” are separate entries in the source; they are usually repeats but may differ in a detail not shown here. Equal entries are not always repeated. Where two headings read alike, the source gives them in different places.
Experiments:
[1] = molecular target: L1 EN (LINE-1 retrotransposon endonuclease domain) (Homo sapiens, UniProt O00370, N5T); experiment: Fluorescent oligonucleotide EN nicking activity assay; type: biochemical; conditions: technical replicates 1-3, Fig. 2b source data
APE1 = molecular target: T1, APE1 (Homo sapiens, UniProt P27695); experiment: APE1 fluorescent oligonucleotide activity assay (abasic site substrate); type: biochemical; conditions: for APE1 percent activity, Replicate 1 / APE1 percent activity, Replicate 2 / APE1 percent activity, Replicate 3 / APE1 percent activity, average: compound at 25 μM; for APE1 percent activity, average: average of 3 replicates; for activity at 25 µM: inhibitors at 25 μM, relative to 0 μM inhibitor control, mean ± s.d., 3 independent experiments, read-out: APE1 activity (%)
T1 construct: purchased New England Biolabs (NEB) M0282S

[2] = system: DNA fragmentation (comet tail length) in HeLa Tet-On cells expressing EN domain; experiment: Neutral comet assay, EN domain-only constructs; type: cell-based, human; conditions: EN domain-only construct, neutral comet assay, normalised to WT
[3] = system: substrate oligonucleotide used in the EN activity assay; type: binding; parameters: key to Binding Detected? (Y/N): Binding Detected? (Y/N); Binding Detected? (Y/N)
L1 retrotransposition = experiment: HeLa dual-luciferase L1 retrotransposition assay; type: cell-based, human; conditions: for L1 retrotransposition, average: average of 4 replicates, Figure 4b; for Luciferase (retrotransposition), replicates: Replicates 1-4
[4] = system: L1-induced DNA damage in HeLa Tet-On cells (full-length L1); experiment: γ-H2AX immunofluorescence assay, full-length L1 constructs; type: cell-based, human
[5] = system: senescent LF1 human diploid fibroblasts (IFN-I and Aging gene sets); experiment: RNA-seq / Gene Set Enrichment Analysis of senescent cultures; type: cell-based; conditions: senescent cultures treated 1 month beginning at 3 months senescence
[6] = system: senescent LF1 human diploid fibroblasts (IL6, IL1β, CCL2, IFNα, MMP3); experiment: RT-qPCR of inflammatory markers in replicatively senescent fibroblasts; type: cell-based
HeLa Tet-On cells = conditions: human, 48 h
[7] = system: L1-induced DNA damage in HeLa Tet-On cells (EN domain only); experiment: γ-H2AX immunofluorescence assay, EN domain-only constructs; type: cell-based, human
[8] = [Inhibitor] 5 μM, read-out: EN activity, percent of no inhibitor control
[9] = [Inhibitor] 25 μM, read-out: EN activity, percent of no inhibitor control
[10] = Figure 4a Graph 3, 50μM, 0μM average 17.91
[11] = Figure 4a Graph 1, 25 μM, 0 μM average 9.554

Sequence of L1 EN (LINE-1 retrotransposon endonuclease domain) (O00370 1-239 N5T): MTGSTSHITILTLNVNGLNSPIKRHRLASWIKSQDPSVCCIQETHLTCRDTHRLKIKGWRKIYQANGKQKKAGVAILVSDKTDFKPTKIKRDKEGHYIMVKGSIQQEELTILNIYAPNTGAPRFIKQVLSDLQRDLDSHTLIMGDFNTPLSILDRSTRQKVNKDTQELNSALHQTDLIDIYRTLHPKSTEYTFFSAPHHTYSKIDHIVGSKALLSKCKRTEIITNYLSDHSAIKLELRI

COc1ccc2c(c1)C(=O)N(CCc1ccc(S(=O)(=O)NC(=O)NC3CCCCC3)cc1)C(=O)C2(C)C [AD12]
EN activity, percent of no inhibitor control ([1]; [Inhibitor] 5 μM, 5 µM): 77.035% and 74.8653% | remaining activity at 5 µM [1, 8]: 78.7% | EN activity, percent of no inhibitor control ([1]; [Inhibitor] 25 μM, 25 µM): 81.0185% and 81.0517% | remaining activity at 25 µM [1, 9]: 80.7% | EN activity, percent of no inhibitor control ([1]; [Inhibitor] 50 μM, 50 µM): 93.0387% and 96.7449% and 76.3025% | EN activity, percent of no inhibitor control ([1]; [Inhibitor] 100 μM, 100 µM): 74.7453% and 98.1517% and 74.2286% | EN activity, percent of no inhibitor control ([1]; [Inhibitor] 250 μM, 250 µM): 79.2639% and 68.0005% | remaining activity at 250 µM ([1]; [Inhibitor] 250 μM, read-out: EN activity, percent of no inhibitor control): 61.9% | EN activity, percent of no inhibitor control ([1]; [Inhibitor] 500 μM, 500 µM): 55.3249% and 49.2356% | remaining activity at 500 µM ([1]; [Inhibitor] 500 μM, read-out: EN activity, percent of no inhibitor control): 62.1% | EN activity, percent of no inhibitor control ([1]; [Inhibitor] 750 μM, 750 µM): 29.8392% and 18.9487% | remaining activity at 750 µM ([1]; [Inhibitor] 750 μM, read-out: EN activity, percent of no inhibitor control): 18% | EN activity, percent of no inhibitor control ([1]; [Inhibitor] 1000 μM, 1000 µM): 13.0331% and 19.9958% | remaining activity at 1000 µM ([1]; [Inhibitor] 1000 μM, read-out: EN activity, percent of no inhibitor control): 20.4% | EN activity, percent of no inhibitor control ([1]; [Inhibitor] 1500 μM, 1500 µM): 5.3699% and 4.215% | remaining activity at 1500 µM ([1]; [Inhibitor] 1500 μM, read-out: EN activity, percent of no inhibitor control): 4.91% | Percent APE1 activity, average (APE1; 250 µM, Supplementary Fig. 6b, n=3): 114.2% | Percent APE1 activity, replicates (APE1; 250 µM, Supplementary Fig. 6b, replicates 1-3): 123.394% and 115.312% and 103.88% | APE1 percent activity, Replicate 1 (APE1): 105.329% | APE1 percent activity, Replicate 2 (APE1): 115.007% | APE1 percent activity, Replicate 3 (APE1): 106.871% | APE1 percent activity, average (APE1): 109.069% | activity at 25 µM (APE1): 109 ± 5.2% | Nuclei comet tail length, average (WT = 1) ([2]; 50 μM inhibitor): 0.8544 | Binding Detected? (Y/N) [3]: N | L1 retrotransposition, average (L1 retrotransposition; 1 μM inhibitor): 17.6477 | L1 retrotransposition, average (L1 retrotransposition; 5 μM inhibitor): 10.1662 | L1 retrotransposition, average (L1 retrotransposition; 10 μM inhibitor): 4.75 | L1 retrotransposition, average (L1 retrotransposition; 25 μM inhibitor): 4.785 | L1 retrotransposition, average (L1 retrotransposition; 50 μM inhibitor): 3.467 | L1 retrotransposition, average (L1 retrotransposition; 100 μM inhibitor): 2.555 | Luciferase (retrotransposition), average (L1 retrotransposition; [10]): 3.467 | Luciferase (retrotransposition), replicates (L1 retrotransposition; [10]): 3.679 and 3.508 and 3.347 and 3.332 | Effect on L1 retrotransposition (L1 retrotransposition; HeLa cells): some activity in the retrotransposition assay | Inhibition of DNA damage, full-length L1 experiments [4]: best inhibition | Expression of IFN-I gene set and aging gene set (RNA-seq, GSEA) [5]: decreased expression | MMP3 RT-qPCR, average (EP = 1) ([6]; 50 μM, senescent cells, SEN control 5.499, 3 replicates): 3.608 | IL1β RT-qPCR, average (EP = 1) ([6]; 50 μM, senescent cells, SEN control 8.256, 3 replicates): 8.197 | CCL2 RT-qPCR, average (EP = 1) ([6]; 50 μM, senescent cells, SEN control 8.589, 3 replicates): 4.591 | IFNα RT-qPCR, average (EP = 1) ([6]; 50 μM, senescent cells, SEN control 18.65, 3 replicates): 8.607 | IL6 RT-qPCR, average (EP = 1) ([6]; 50 μM, senescent cells, SEN control 22.45, 3 replicates): 8.334 | Inhibition of inflammation in senescent cells ([6]; treated 1 month): showed efficacy | PrestoBlue (viability), average (HeLa Tet-On cells; 50 μM): 5.992

Nn1cnn2c(SCC(=O)Cc3ccc(-c4nc5cc(NC(=O)CSc6nnc7n(N)cnn67)ccc5o4)cc3)nnc12 [AD16]
EN activity, percent of no inhibitor control ([1]; [Inhibitor] 0.2 μM, 0.2 µM): 82.0267% and 71.1107% and 113.489% | EN activity, percent of no inhibitor control ([1]; [Inhibitor] 1 μM, 1 µM): 95.0279% and 119.352% and 94.1929% | EN activity, percent of no inhibitor control ([1]; [Inhibitor] 5 μM, 5 µM): 53.9202% and 53.7999% | remaining activity at 5 µM [1, 8]: 52.1% | EN activity, percent of no inhibitor control ([1]; [Inhibitor] 10 μM, 10 µM): 8.722% and 8.848% | remaining activity at 10 µM ([1]; [Inhibitor] 10 μM, read-out: EN activity, percent of no inhibitor control): 9.85% | EN activity, percent of no inhibitor control ([1]; [Inhibitor] 25 μM, 25 µM): 4.539% and 2.3611% | remaining activity at 25 µM [1, 9]: 3.82% | EN activity, percent of no inhibitor control ([1]; [Inhibitor] 50 μM, 50 µM): 5.5014% and 3.599% | remaining activity at 50 µM ([1]; [Inhibitor] 50 μM, read-out: EN activity, percent of no inhibitor control): 5.19% | EN activity, percent of no inhibitor control ([1]; [Inhibitor] 100 μM, 100 µM): 3.629% and 2.352% | remaining activity at 100 µM ([1]; [Inhibitor] 100 μM, read-out: EN activity, percent of no inhibitor control): 2.31% | APE1 percent activity, Replicate 1 (APE1): 93.7909% | APE1 percent activity, Replicate 2 (APE1): 100.33% | APE1 percent activity, Replicate 3 (APE1): 92.4773% | APE1 percent activity, average (APE1): 95.5327% | activity at 25 µM (APE1): 95.5 ± 4.2% | Nuclei comet tail length, average (WT = 1) ([2]; 25 μM inhibitor): 0.5888 | Binding Detected? (Y/N) [3]: Y | Binding to the oligonucleotide substrate [3]: detectable binding | L1 retrotransposition, average (L1 retrotransposition; 0.5 μM inhibitor): 6.997 | L1 retrotransposition, average (L1 retrotransposition; 1 μM inhibitor): 6.79 | L1 retrotransposition, average (L1 retrotransposition; 5 μM inhibitor): 6.3671 | L1 retrotransposition, average (L1 retrotransposition; 10 μM inhibitor): 6.224 | L1 retrotransposition, average (L1 retrotransposition; 25 μM inhibitor): 5.375 | L1 retrotransposition, average (L1 retrotransposition; 50 μM inhibitor): 4.14 | Luciferase (retrotransposition), average (L1 retrotransposition; [11]): 3.568 | Luciferase (retrotransposition), replicates (L1 retrotransposition; [11]): 3.791 and 3.903 and 3.817 and 2.762 | Inhibition of DNA damage, EN domain-only experiments [7]: better efficacy | PrestoBlue (viability), average (HeLa Tet-On cells; 25 μM): 13.01

— PMC11078990, “Identification and characterization of small molecule inhibitors of the LINE-1 retrotransposon endonuclease” (Nature Communications, 2024)
